# Assay results as given in patent publication US3943137A, “Acronycine derivatives” (University of Kansas Endowment Association, priority 1973, dated 1976).
# “And” between values parts separate entries of the source, which are not always exact repeats. Equal entries are not always repeated. Structures can show the parent of a compound that is named as a salt. Where two headings read alike, the source gives them in different places.
# Columns and labels:
# Assay type in all cases: physicochemical
# [1] = Hydrolysis of acylacronycinium salts in aqueous solution (no complexing agent); conditions: for half-life: read-out: t1/2 (hydrolysis)
# [2] = Solubility; conditions: water; for solubility (qualitative): acetone, benzene
# [3] = Hydrolysis of acylacronycinium salts in presence of complexing agents; conditions: for half-life at 100 µM: 10^-4 M drug, 25° C., pH 6.0, read-out: Apparent half-life, t1/2; for k (hydrolysis): gentisic acid (0.05 M)
# Description: In studying the kinetics of hydrolysis of the aforesaid quaternary acyl acronycinium salts to yield acronycine, it was determined that the increased solubility and the rapid rate of hydrolysis were such that said quaternary derivatives were eminently well suited for use as pro-drugs. Nevertheless, the facility with which hydrolysis occurred in water presented one problem of too rapid precipitation from solution as a consequence of the formation of the slightly soluble acronycine free base. In order to prevent any objectionable hydrolysis of the pro-drug in aqueous solution prior to administration, it was discovered that the hydrolytic rate thereof could be retarded by the formation of intermolecular complexes therewith. […] Moreover, since complexation is an equilibrium phenomenon, extensive complexation occurs in the relatively concentrated drug solution. However, upon dilution with aqueous media such as body fluids, the complex species dissociates, and the pro-drug is then rapidly hydrolyzed to the desired drug species, namely, the acronycine free base. Exemplary of the complexing agents which can be used in aqueous solutions of the acylacronycinium salts to retard the hydrolysis thereof are a wide variety of the organic acids and alkali metal salts thereof, preferably the cyclic and aromatic organic acids, and most preferably the hydroxy aromatic acids. Representative of same are gentisic acid, gamma-resorcylic acid, p-hydroxycinnamic acid, 2-furoic acid, m-hydroxycinnamic acid, 3,4-dimethylcinnamic acid and 3-methylgentisic acid, and the sodium and other salts thereof. A suitably stable and useful formulation of an acylacronycinium salt for use in the preparation of pharmaceutical solutions can be simply made by preparing a powder mixture of the desired acylacronycinium salt and a suitable complexing agent in such proportions and amounts that upon addition of an aqueous solvent, the resulting solution would be of a composition such that the hydrolysis of the acylacronycinium salt would be greatly retarded.
# Among the number of the hydroxy aromatic acids, particularly the hydroxy benzoic acids that have been utilized according to the invention, excellent results have been attained with the preferred 2,5-dihydroxy-benzoic acid (gentisic acid). […] Mathematical analysis of the results dictates describing this system by two equilibria; one to one complex and one to two complex formation (one drug and two ligand), with the 1:1 complex and the free drug hydrolyzing with half-lives of 120 and 23 minutes, respectively. The solid curve of the FIGURE of drawing illustrates the result of such model. Constants required for the t1/2 calculations were as follows:
# and the experimental conditions were:
# Use of suitable complexing agents in aqueous solutions of the acylacronycinium salts retarded the hydrolysis of such compounds. Some of the complexing agents used were the following: sodium gentisate, sodium gamma-resorcylate and sodium cinnamate. Table I reflects the effects of sodium gentisate concentration on the apparent rate of hydrolysis of acetylacronycinium perchlorate.
# Apparent half-line of acetylacronycinium perchlorate
# (10^-^4 M) as a function of sodium gentisate concentration
# in water at 25° C. pH = 6.0.
# Experimental: Twenty-five mg of acetylacronycinium perchlorate and 4.6 g of sodium gentisate were powdered, mixed and placed in a suitable vial and sealed. Just prior to use, 100 ml of water was added to the vial, and the solid material dissolved rapidly, yielding a solution which was about 10^^-3 M with respect to acetylacronycinium perchlorate and about 0.2 Molar with respect to sodium gentisate.
# [4] = acetate buffer (25° C.), replicate runs
# [5] = phosphate buffer (25° C.), replicate runs
# [6] = phosphate buffer, 25° C., pH not given, three runs
# [7] = phosphate buffer, pH 7.60, 25°C
compound,measurement,setting,value
COc1cc2c(c3c1c(OC(C)=O)c1ccccc1[n+]3C)C=CC(C)(C)O2 [Acetylacronycinium Chloride],k (hydrolysis),"[1]; methanol/water (90/10), pH 0.28",0.000413 s⁻¹
same,half-life,"[1]; methanol/water (90/10), pH 0.28, methanol/water (90/10), pH 0.28",0.467 h
same,k (hydrolysis),"[1]; methanol/water (90/10), pH 1.28",0.000417 s⁻¹
same,half-life,"[1]; methanol/water (90/10), pH 1.28, methanol/water (90/10), pH 1.28",0.462 h
COc1cc2c(c3c1c(OC(C)=O)c1ccccc1[n+]3C)C=CC(C)(C)O2 [Acetylacronycinium Sulfate],k (hydrolysis),[1]; [4],0.000436 s⁻¹ and 0.000423 s⁻¹
same,t1/2 (hydrolysis),[1]; [4],0.455 h
same,half-life,"[1]; acetate buffer, acetate buffer (25° C.), replicate runs",0.442 h
same,k (hydrolysis),[1]; [5],0.0006 s⁻¹ and 0.000586 s⁻¹ and 0.000538 s⁻¹
same,t1/2 (hydrolysis),[1]; [5],0.328 h and 0.358 h
same,half-life,"[1]; phosphate buffer, phosphate buffer (25° C.), replicate runs",0.322 h
COc1cc2c(c3c1c(OC(=O)C(C)C)c1ccccc1[n+]3C)C=CC(C)(C)O2 [Isobutyrylacronycinium Perchlorate],k (hydrolysis),"[1]; phosphate buffer, pH 6.33, 24° C.",0.0003428 s⁻¹
same,half-life,"[1]; phosphate buffer, pH 6.33, phosphate buffer, pH 6.33, 24° C.",0.562 h
COc1cc2c(c3c1c(OC(=O)C(F)(F)F)c1ccccc1[n+]3C)C=CC(C)(C)O2 [Trifluoroacetylacronycinium Perchlorate],reactivity with chloroform,[1]; chloroform,little reaction with chloroform (until water was added)
same,hydrolysis on storage,[1]; overnight in desiccator while still moist,Some hydrolysis occurred overnight
same,reactivity with water and methanol,[1]; water and methanol,reacted very quickly with water and methanol
"COc1cc2c(c3c1c(OC(C)=O)c1ccccc1[n+]3C)C=CC(C)(C)O2 [acetylacronycinium perchlorate, Acetylacronycinium Perchlorate]",solubility (qualitative),[2],"insoluble in benzene, but soluble in water and acetone"
same,increase in solubility over the free base,[2],hundredfold increase in solubility
same,solubility,[2]; read-out: Solubility,~250 µg/mL
same,solubility,[2]; read-out: solubility in water,250 µg/mL
same,enthalpy of activation of hydrolysis,[1],about 20 kcal/mole
same,effect of dielectric constant on hydrolysis rate,[1]; increasing dielectric constant,greatly increased
same,"effect of ionic strength, pH, anion, ester group size on hydrolysis rate","[1]; ionic strength, pH (below 8-9), anion, ester group size",remarkably insensitive
same,"t1/2 and k of hydrolysis, 3,4-dihydroxycinnamic acid complex","[3]; 3,4-dihydroxycinnamic acid, pH 6.5, 25° C., 0.05 M phosphate buffer",roughly comparable to those generated with the sodium gentisate complex
same,"t1/2 and k of hydrolysis, cinnamic acid complex","[3]; cinnamic acid, pH 6.5, 25° C., 0.05 M phosphate buffer",roughly comparable to those generated with the sodium gentisate complex
same,"t1/2 and k of hydrolysis, gamma-resorcylic acid complex","[3]; gamma-resorcylic acid, pH 6.5, 25° C., 0.05 M phosphate buffer",roughly comparable to those generated with the sodium gentisate complex
same,t1/2 1:2 Complex,"[3]; model constant, sodium gentisate, μ = 1.0 M, 25.0°C, pH 6.5, 520 nm",.infin.
same,"t1/2 and k of hydrolysis, p-hydroxycinnamic acid complex","[3]; p-hydroxycinnamic acid, pH 6.5, 25° C., 0.05 M phosphate buffer",roughly comparable to those generated with the sodium gentisate complex
same,rate of hydrolysis with sodium gentisate,"[3]; sodium gentisate, FIGURE",greatly reduced
same,K1:1 (complexation constant),"[3]; sodium gentisate, one drug, one ligand, μ = 1.0 M, 25.0°C, pH 6.5, 520 nm, in M^-1 (unit assumed)","4,081"
same,k1:2 (complexation constant),"[3]; sodium gentisate, one drug, two ligand, μ = 1.0 M, 25.0°C, pH 6.5, 520 nm","80,000"
same,half-life at 1000 µM,"[3]; water, about 10^-3 M drug, about 0.2 Molar sodium gentisate, water, reconstituted powder mixture, read-out: apparent hydrolytic half-life (converted)",~9.5 h
same,half-life at 100 µM,"[3]; water, pH 6, sodium gentisate 0 M/l, water",0.383 h
same,half-life at 100 µM,"[3]; water, pH 6, sodium gentisate 0.1 M/l, water",5.83 h
same,half-life at 100 µM,"[3]; water, pH 6, sodium gentisate 0.2 M/l, water",9.63 h
same,half-life at 100 µM,"[3]; water, pH 6, sodium gentisate 1 × 10^-2 M/l, water",2.08 h
same,half-life at 100 µM,"[3]; water, pH 6, sodium gentisate 2 × 10^-2 M/l, water",2.6 h
same,half-life at 100 µM,"[3]; water, pH 6, sodium gentisate 2.5 × 10^-3 M/l, water",1.55 h
same,half-life at 100 µM,"[3]; water, pH 6, sodium gentisate 4 × 10^-2 M/l, water",3.45 h
same,half-life at 100 µM,"[3]; water, pH 6, sodium gentisate 5 × 10^-3 M/l, water",1.8 h
same,half-life at 100 µM,"[3]; water, pH 6, sodium gentisate 6 × 10^-2 M/l, water",4.33 h
same,half-life at 100 µM,"[3]; water, pH 6, sodium gentisate 8 × 10^-2 M/l, water",4.92 h
same,half-life,"[3]; water, pH 6.5, 1:1 complex with sodium gentisate, two-equilibria model, μ = 1.0 M, 25.0°C, pH 6.5, 520 nm, read-out: half-life of hydrolysis, 1:1 complex",2 h
same,half-life,"[3]; water, pH 6.5, model constant, sodium gentisate, μ = 1.0 M, 25.0°C, pH 6.5, 520 nm, read-out: t1/2 1:1 Complex",1.98 h
"COc1cc2c(c3c1c(=O)c1ccccc1n3C)C=CC(C)(C)O2 [perchlorate salt, acronycinium perchlorate]",solubility (qualitative),[2],soluble in water and insoluble in acetone and benzene
"COc1cc2c(c3c1c(OC(=O)C(C)(C)C)c1ccccc1[n+]3C)C=CC(C)(C)O2 [pivalylacronycinium perchlorate, Pivalylacronycinium Perchlorate]",k (hydrolysis),[1]; [6],0.000717 s⁻¹ and 0.000645 s⁻¹ and 0.000482 s⁻¹
same,t1/2 (hydrolysis),[1]; [6],0.2985 h and 0.3997 h
same,half-life,[1]; [6],0.268 h
"CCC(=O)Oc1c2ccccc2[n+](C)c2c3c(cc(OC)c12)OC(C)(C)C=C3 [propionylacronycinium perchlorate, Propionylacronycinium Perchlorate]",k (hydrolysis),"[1]; phosphate buffer, pH 7.50, 25°C",0.000467 s⁻¹
same,half-life,"[1]; phosphate buffer, pH 7.5, phosphate buffer, pH 7.50, 25°C",0.407 h
same,k (hydrolysis),[1]; [7],0.000767 s⁻¹ and 0.000783 s⁻¹
same,t1/2 (hydrolysis),[1]; [7],0.243 h
same,half-life,"[1]; phosphate buffer, pH 7.6, phosphate buffer, pH 7.60, 25°C",0.248 h
same,half-life,"[3]; 0.05 m gentisic acid, pH 2.7, gentisic acid (0.05 M), pH 2.70, 25°C, read-out: t1/2 (hydrolysis)",1.71 h
same,half-life,"[3]; 0.05 m gentisic acid, pH 2.78, gentisic acid (0.05 M), pH 2.78, 25°C, read-out: t1/2 (hydrolysis)",1.44 h
same,k (hydrolysis),"[3]; pH 2.70, 25°C",0.0067 min⁻¹
same,k (hydrolysis),"[3]; pH 2.78, 25°C",0.008 min⁻¹
